Source: publication PMC12193058, “Discovery of Small Molecules Targeting Norovirus 3CL Protease by Multi-Stage Virtual Screening” (International Journal of Molecular Sciences, 2025)

What was measured:
[1] = test system: Murine norovirus (MNV, strain MNV-1.CW1); assay: Antiviral assay: MNV-infected RAW264.7 cells, protection from CPE (MTS); type: cell-based
Method: (§1) Murine norovirus (MNV, strain MNV-1. CW1) was propagated as previously described. HG23 cells and RAW 264.7 cells were maintained as described earlier. The cells were incubated at 37 °C in a humidified atmosphere of 5% CO2. To obtain virus stock, once full CPE was observed, the cells underwent two freeze–thaw cycles and the virus was harvested from the supernatants after centrifugation (10 min, 1000× g) and stored at […]. The viral titer was determined by endpoint titration.
(§2) The experiment was performed as previously described. In short, RAW264.7 cells (1 × 10^4 cells/well) were infected with MNV.CW1 in the presence of a dilution series of compounds. Antiviral activity and cytotoxicity were determined using a colorimetric assay using 3-(4,5-dimethylthiazol-2-yl)-5-(3-carboxymethoxyphenyl)-2-(4 sulfophenyl)-2H-tetrazolium (MTS). The 50% effective concentration (EC50) was defined as the compound concentration that protected 50% of the cells from CPE. The cell viability % was calculated as (ODtreated/ODCC) × […] and the 50% cytotoxic concentration (CC50) was defined as the compound concentration that reduces the number of viable cells by 50%. HuNoVGI.1replicon: The experiment was performed as described earlier with minor modifications. In short, HG23 cells (7.5 × 10^2 cells/well) were seeded into the wells of a 96-well plate without G418 (Geneticin Selective Antibiotic). After 24 h of incubation, the tested compounds were added. The cells were incubated for another 72 h; then they were collected for RNA load quantification using RT-qPCR [34]. The EC50 values were defined as the compound concentration that led to a 50% reduction in the relative HuNoV GI.1 replicon RNA levels.

[2] = Cytotoxicity assay (MTS) in non-infected cells; type: cell-based; conditions: mouse, RAW264.7 cells (non-infected); cytotoxic concentration to induce 50% death of non-infected cells; mean of two to three independent experiments
Method: as §1, §2

| SMILES | EC50 [1] | CC50 [2] |
| --- | --- | --- |
| CC1=NN=C(O)C1CC(=O)N/N=C/c1cccc(Br)c1 (stereo not shown) [YY-0182] | > 50 µM | > 50 µM |
| Cc1[nH][nH]c(=O)c1CC(=O)N1C[C@@H](c2ccccc2)O[C@@H](C(C)C)C1 [YY-0587] | > 50 µM | > 50 µM |
| Cc1cc(N)n(CC(=O)N(Cc2cccnc2)Cc2ccc3c(c2)OCO3)n1 [YY-0744] | > 50 µM | > 50 µM |
| CCCCNC(=O)[C@H](Cc1ccccc1)NC(=O)N1CC(O)=Nc2ccccc21 [YY-6127] | > 50 µM | > 50 µM |
| COc1cc(C(CC(=O)NCC(=O)NCc2ccco2)c2oc(C)cc(=O)c2O)ccc1O (stereo not shown) [YY-0420] | > 50 µM | > 50 µM |
| O=C(NC1CCCc2ccccc21)[C@H](Cc1ccccc1)NC(=O)N1CC(O)=Nc2ccccc21 (stereo partly shown) [YY-3724] | > 50 µM | > 50 µM |
| COc1cncc(C(NC(=O)c2cc(=O)[nH]c3ccccc23)[C@H]2C[C@H](O)C2)c1 (stereo partly shown) [YY-3656] | > 50 µM | > 50 µM |
| O=C(ON1C(=O)CCC1=O)[C@H](Cc1ccccc1)NC(=O)N1CC(O)=Nc2ccccc21 [YY-9242] | > 50 µM | > 50 µM |
| CC(C)C1C(O)=Nc2ccccc2N1C(=O)N[C@@H](Cc1ccccc1)C(=O)N[C@@H](CCC(N)=O)C(=O)O (stereo partly shown) [YY-4047] | > 50 µM | > 50 µM |
| COc1ccc(C(CC(=O)N2CCc3c([nH]c4ccccc34)C2)c2oc(C)cc(=O)c2O)cc1O (stereo not shown) [YY-4958] | > 50 µM | > 50 µM |
| COc1cc(NC(=O)[C@H](Cc2ccccc2)NC(=O)N2CC(O)=Nc3ccccc32)cc(OC)c1 [YY-9837] | > 50 µM | 45 µM |
| CCC(SC1=Nc2ccccc2C2=NC(=O)C(CCC(=O)NCc3ccc(F)cc3)N12)C(=O)Nc1cccc(OC)c1 (stereo not shown) [YY-0734] | > 50 µM | > 50 µM |
| Cc1nc2ccc(NC(=O)N3CCNC(=O)C3CCO)cc2nc1C (stereo not shown) [YY-0809] | > 50 µM | > 50 µM |
| COc1ccc(CCN(C(=O)Cc2nnc(O)c3ccccc23)[C@@H](C)C(N)=O)cc1 [YY-8610] | > 50 µM | > 50 µM |
| CNC(=O)c1ccc(C)c(NC(=O)NCCN2CCNC2=O)c1 [YY-4095] | > 50 µM | > 50 µM |
| COc1ccc(CCNC(=O)[C@H](Cc2ccccc2)NC(=O)N2CC(O)=Nc3ccccc32)cc1 [YY-4204] | > 50 µM | > 50 µM |
| O=C(NCc1cccc(Cl)c1)[C@H](Cc1ccccc1)NC(=O)N1CC(O)=Nc2ccccc21 [YY-9773] | > 50 µM | > 50 µM |
